{"source": "paper PMC7198382", "about": "(Journal of nuclear medicine : official publication, Society …, 2019)", "key": {"[1]": {"test_system": "CA20948 tumor xenograft-bearing mice", "assay": "SPECT/CT tumor uptake of 177Lu-DOTATATE", "assay_type": "in vivo", "settings": "dynamic SPECT imaging after intravenous administration, one mouse"}, "[2]": {"test_system": "CA20948 tumor xenografts", "assay": "In vivo 177Lu tumor dosimetry from SPECT VOI analysis", "design": "species or system mice", "settings": "single exponential fit of tumour time-activity data; mean ± SD"}}}
{"smiles": "C[C@@H](O)[C@H](NC(=O)[C@@H]1CSSC[C@H](NC(=O)[C@@H](Cc2ccccc2)NC(=O)CN2CCN(CC(=O)O)CCN(CC(=O)O)CCN(CC(=O)O)CC2)C(=O)N[C@@H](Cc2ccc(O)cc2)C(=O)N[C@H](Cc2c[nH]c3ccccc23)C(=O)N[C@@H](CCCCN)C(=O)N[C@@H]([C@@H](C)O)C(=O)N1)C(=O)O", "note": "[^177Lu-DOTATATE, (DOTA^0-Tyr^3)-octreotate, metal not drawn]", "values": [{"measurement": "time at which maximum tumor uptake was reached", "setting": "[1]", "result": 60, "unit": "min"}, {"measurement": "mean effective half-life of clearance from the tumor xenografts", "setting": "[2]", "result": "46.3 ± 8.6", "unit": "h"}]}
